Results reported in ChEMBL document CHEMBL3885861, “Open TG-GATES”.

Organism: Rattus norvegicus
Assay: Open TG-GATES - Regimen: Single
Assay type: toxicity, organism-based, Sprague-Dawley
Design: regimen Single, gender Male, age 6 weeks
Conditions: in vivo, po, 0 mg/kg, route gavage, dose level Control; for APTT / Bas / Eos / Fbg / Hb / Ht / Lym / MCH / MCHC / MCV / Mono / Neu / PT / Plat / RBC / Ret / WBC: tissue Blood; for KIDNEY_L / KIDNEY_R / KIDNEY_TOTAL: tissue Kidney; for LIVER: tissue Liver; for A/G / ALP / ALT / AST / BUN / CRE / Ca / Cl / DBIL / GLC / IP / K / LDH / Na / PL / RALB / TBIL / TC / TG / TP / gamma-GTP: tissue Plasma

Cc1cccc(C)c1OCC(C)N (configuration not stated) [MEXILETINE]
TERMINAL_BW (3 h): 222.3 g
APTT (3 h): 22.2 s
Bas (3 h): 0%
Eos (3 h): 0.8%
Fbg (3 h): 310.6 mg/dL
Hb (3 h): 12.8 g/dL
Ht (3 h): 39.4%
Lym (3 h): 80.6%
MCH (3 h): 21 pg
MCHC (3 h): 32.4%
MCV (3 h): 64.8 fL
Mono (3 h): 1.8%
Neu (3 h): 16.2%
PT (3 h): 16.1 s
Plat (3 h): 107.7 x10_4/uL
RBC (3 h): 608.6 x10_4/ul
Ret (3 h): 8.8%
WBC (3 h): 96.5 x10_2/uL
KIDNEY_L (3 h): 0.9 g
KIDNEY_R (3 h): 0.9 g
KIDNEY_TOTAL (3 h): 1.9 g
LIVER (3 h): 10.2 g
A/G (3 h): 1.2
ALP (3 h): 1498 IU/L
ALT (3 h): 45.2 IU/L
AST (3 h): 77.4 IU/L
BUN (3 h): 13.6 mg/dL
CRE (3 h): 0.2 mg/dL
Ca (3 h): 10.6 mg/dL
Cl (3 h): 107 meq/L
DBIL (3 h): 0 mg/dL
GLC (3 h): 192 mg/dL
IP (3 h): 8.5 mg/dL
K (3 h): 4 meq/L
LDH (3 h): 181.2 IU/L
Na (3 h): 142 meq/L
PL (3 h): 132.4 mg/dL
RALB (3 h): 3 g/dL
TBIL (3 h): 0.016 mg/dL
TC (3 h): 77 mg/dL
TG (3 h): 62.8 mg/dL
TP (3 h): 5.5 g/dL
gamma-GTP (3 h): 1.6 IU/L
TERMINAL_BW (6 h): 218.2 g
APTT (6 h): 22.4 s
Bas (6 h): 0%
Eos (6 h): 0.8%
Fbg (6 h): 305.2 mg/dL
Hb (6 h): 12.9 g/dL
Ht (6 h): 39.5%
Lym (6 h): 78.4%
MCH (6 h): 20.6 pg
MCHC (6 h): 32.7%
MCV (6 h): 63.1 fL
Mono (6 h): 2.8%
Neu (6 h): 17.2%
PT (6 h): 16 s
Plat (6 h): 113.7 x10_4/uL
RBC (6 h): 627.6 x10_4/ul
Ret (6 h): 7.8%
WBC (6 h): 112.2 x10_2/uL
KIDNEY_L (6 h): 1 g
KIDNEY_R (6 h): 1 g
KIDNEY_TOTAL (6 h): 2 g
LIVER (6 h): 9.4 g
A/G (6 h): 1.3
ALP (6 h): 1119.6 IU/L
ALT (6 h): 37.4 IU/L
AST (6 h): 70.2 IU/L
BUN (6 h): 10.4 mg/dL
CRE (6 h): 0.2 mg/dL
Ca (6 h): 10.5 mg/dL
Cl (6 h): 105.2 meq/L
DBIL (6 h): 0 mg/dL
GLC (6 h): 192.4 mg/dL
IP (6 h): 9.2 mg/dL
K (6 h): 4.2 meq/L
LDH (6 h): 187.6 IU/L
Na (6 h): 140.6 meq/L
PL (6 h): 125 mg/dL
RALB (6 h): 3 g/dL
TBIL (6 h): 0.028 mg/dL
TC (6 h): 72 mg/dL
TG (6 h): 66.2 mg/dL
TP (6 h): 5.4 g/dL
gamma-GTP (6 h): 1.4 IU/L
TERMINAL_BW (9 h): 213.9 g
APTT (9 h): 22.8 s
Bas (9 h): 0%
Eos (9 h): 0.8%
Fbg (9 h): 311 mg/dL
Hb (9 h): 12.9 g/dL
Ht (9 h): 40.1%
Lym (9 h): 77.2%
MCH (9 h): 20.7 pg
MCHC (9 h): 32.2%
MCV (9 h): 64.1 fL
Mono (9 h): 2.4%
Neu (9 h): 19.6%
PT (9 h): 16.2 s
Plat (9 h): 105.6 x10_4/uL
RBC (9 h): 625.4 x10_4/ul
Ret (9 h): 8%
WBC (9 h): 86.8 x10_2/uL
KIDNEY_L (9 h): 0.9 g
KIDNEY_R (9 h): 0.9 g
KIDNEY_TOTAL (9 h): 1.8 g
LIVER (9 h): 8.7 g
A/G (9 h): 1.3
ALP (9 h): 1333.8 IU/L
ALT (9 h): 35.6 IU/L
AST (9 h): 66.2 IU/L
BUN (9 h): 12.2 mg/dL
CRE (9 h): 0.2 mg/dL
Ca (9 h): 10.5 mg/dL
Cl (9 h): 105.2 meq/L
DBIL (9 h): 0 mg/dL
GLC (9 h): 188.8 mg/dL
IP (9 h): 9.4 mg/dL
K (9 h): 4.2 meq/L
LDH (9 h): 133.6 IU/L
Na (9 h): 141.6 meq/L
PL (9 h): 122 mg/dL
RALB (9 h): 3 g/dL
TBIL (9 h): 0.02 mg/dL
TC (9 h): 66.2 mg/dL
TG (9 h): 53.2 mg/dL
TP (9 h): 5.5 g/dL
gamma-GTP (9 h): 1 IU/L
TERMINAL_BW (24 h): 223.6 g
APTT (24 h): 20.9 s
Bas (24 h): 0%
Eos (24 h): 1%
Fbg (24 h): 304 mg/dL
Hb (24 h): 13 g/dL
Ht (24 h): 40.2%
Lym (24 h): 78.4%
MCH (24 h): 20.6 pg
MCHC (24 h): 32.3%
MCV (24 h): 63.6 fL
Mono (24 h): 2%
Neu (24 h): 17.6%
PT (24 h): 16.4 s
Plat (24 h): 128.5 x10_4/uL
RBC (24 h): 632.6 x10_4/ul
Ret (24 h): 6.7%
WBC (24 h): 88.8 x10_2/uL
KIDNEY_L (24 h): 1 g
KIDNEY_R (24 h): 1 g
KIDNEY_TOTAL (24 h): 1.9 g
LIVER (24 h): 9.9 g
A/G (24 h): 1.3
ALP (24 h): 1840.4 IU/L
ALT (24 h): 49.8 IU/L
AST (24 h): 73.8 IU/L
BUN (24 h): 15.6 mg/dL
CRE (24 h): 0.2 mg/dL
Ca (24 h): 10.7 mg/dL
Cl (24 h): 107 meq/L
DBIL (24 h): 0 mg/dL
GLC (24 h): 196.4 mg/dL
IP (24 h): 7.6 mg/dL
K (24 h): 4 meq/L
LDH (24 h): 166 IU/L
Na (24 h): 143.2 meq/L
PL (24 h): 130.6 mg/dL
RALB (24 h): 3.1 g/dL
TBIL (24 h): 0.008 mg/dL
TC (24 h): 70 mg/dL
TG (24 h): 74.6 mg/dL
TP (24 h): 5.6 g/dL
gamma-GTP (24 h): 1.8 IU/L
